Results on three compounds are retold here after patent US20150148405A1, “Expression Construct for a Lin28-Resistant Let-7 Precursor MicroRNA” (THE JOHNS HOPKINS UNIVERSITY, priority 2012, published 2015).

Numbered stars: 1 amine (or outer) side, 2 acyl side, 3 side chain; on linkers, the order of the positions; unused ones are H or OH. Bridge positions count the residues as written; N and C are the ends. Square brackets hold non-standard residues; d marks the D form. Peptide text beside a SMILES is read from it. I, II: the chains in the order shown. Actinocin(9to1) = Cc1c2oc3c(C)ccc(C(=O)[*:1])c3nc-2c(C(=O)[*:2])c(N)c1=O; NMeV = CN[C@H](C(=O)O)C(C)C; Sar = CNCC(=O)O

What all share (format): cell-based, mouse
In assay [1] the test system is hippocampal pyramidal neurons. Description: Live cell imaging of P-body numbers (GFP-Dcp1a). The following applies: 15 μM. How it is done:
Dissociated hippocampal cultures were prepared from postnatal day 0 (P0) mice as previously described (Meffert et al., 2003). Knockdown was by lentiviral-mediated delivery of shRNA to cultures at multiplicity of infection of 5-10, 48 hr before imaging or 4-5 days for GW182. Cultures were preincubated 10-20 min and mock- or BDNF-stimulated (100 ng/mL BDNF) in the presence of Actinomycin-D (0.5 μg/mL), unless indicated otherwise.
Confocal images of hippocampal pyramidal neurons were acquired on either a Yokogawa spinning disk (Zeiss) at 37° C. (live cells), or a LSM5 Pascal system (fixed cells). Laser power and exposure time were adjusted to minimize photobleaching and avoid saturation. […]
Dissociated hippocampal cultures were prepared from postnatal day 0 (P0) mice as previously described (Meffert et al., 2003) and were maintained in Neurobasal A medium (Gibco, 10888) with B27 Supplement (Gibco 17504-44). […] For live cell imaging, confocal images of hippocampal pyramidal neurons (excitatory, determined by morphology) in 0.24-0.3 μm Z sections were acquired using a 40×, 1.3 NA, EC Plan Neofluoar (whole cells) or a 100×, 1.4 NA Plan Apochromat oil immersion objective (dendrites) on a Yokogawa spinning disk system (Cell Observer, Carl Zeiss) at 37° C. in Tyrodes buffer (in mM: 119 NaCl, 5 KCl, 2 CaCl2, 0.2 MgCl2, Glucose, 25 Hepes, 0.01 Glycine, pH 7.4). […]

For assay [2], the system named is cultured neurons. Description: 35S-labelling total protein synthesis. The following applies: mock or BDNF 100 ng/mL 2 hours, Actinomycin-D. How it is done: Cultured neurons were pre-incubated in media containing reduced-serum and Actinomycin-D as previously described, followed by washing and incubation for 10 min with methionine- and cysteine-free DMEM (Mediatech, Inc.), and ^35S labeling in the same DMEM with the addition of ^355-methionine/cysteine (^35S Met/Cys EasyTag Mix, Perkin Elmer) to a final concentration of […]. Mock- or BDNF stimulation was for 2 hours. Cells were washed and lysed with lysis buffer (see immunoblotting). Lysates were centrifuged and collected supernatants subjected to Bradford assay. To assess newly synthesized proteins, 200-500 μg of lysates proteins were precipitated with 10% trichloroacetic acid (TCA) for 1 hour on ice in the presence of 0.5% deoxycholate (DOC) to remove interfering phenol red. After centrifugation, protein pellets were washed with ice-cold 95% ethanol, solubilized in denaturing buffer ([…] Tris pH 8.3, 5 mM EDTA, 0.05% SDS, 6M urea), and subjected to liquid scintillation counting (Econofluor, New England Nuclear, Inc.). ^35S Disintegration per minute (DPM) was used to quantitate protein synthesis after subtraction of background readings.

For assay [3], the system named is BDNF targets. As to the kind of experiment: Immunoblotting for BDNF target proteins with or without Actinomycin-D. To be noted: Actinomycin-D 0.5 μg/mL added 10 min before stimulation. How it is done:
[…] Bath application of BDNF (100 ng/mL) was for designated periods (5 min-2 hours). The cultures were washed 3 times and harvested on ice with lysis buffer (50 mM Hepes, 150 mM NaCl, 10% Glycerol, 1 mM EDTA, 1% Triton-X-100, 0.2% SDS) plus freshly added protease inhibitor cocktail (Roche) and PMSF. Protein concentration was determined by Bradford Assay. If required, lysates were treated with Lambda Protein Phosphatase according to manufacturer's instructions (New England Biolabs P0753S). Equal amounts of lysate protein were resolved on SDS-PAGE gels, and electrotransferred to PVDF membrane. Membrane was blocked with 5% milk in Tris-buffered saline tween 20 (TBST) and probed with primary antibodies in 5% milk or BSA in TBST: GluR1 (Millipore AB1504), CaMKIIα (Zymed 13-7300), Homer2 (gift of P. Worley), KCC2 (Upstate 07-432), Kv1.1 (NeuroMab 73-007), β-tubulin (U. Iowa DSHB, clone E-7), GAPDH (gift of S. Snyder), GW182 (18033 gift of M. Fritzler or Abcam ab84403), Dcp1a (gift of J. Lykke-Andersen or NeuroMab clone3G4), phospho-ERK ½ (Sigma M 7802), Dicer (NeuroMab clone N167/7), TRBP (Abeam ab72110), Lin28a (Cell Signaling A177), Lin28b (gift of E. Moss or Cell Signaling 5422), Arc (SantaCruz 17839), mCherry (Clontech 632496), GFP (NeuroMab N86/8).
For orientation: In western blotting, separated proteins are transferred to a membrane and probed.

For the compound `CCn1cc(C(=O)O)c(=O)c2cc(F)c(N3CCNCC3)nc21` [Enoxacin, enoxacin], the “P-body numbers in neuronal soma and dendrites” value in assay [1] was “rapidly and robustly increased P-body numbers”. Also, in assay [2], the “total protein synthesis (35S incorporation)” value was “did not alter basal or BDNF-induced total protein synthesis”. Regarding `Cc1c2oc3c(C)ccc(C(=O)N[C@@H]4C(=O)N[C@H](C(C)C)C(=O)N5CCC[C@H]5C(=O)N(C)CC(=O)N(C)[C@@H](C(C)C)C(=O)O[C@@H]4C)c3nc-2c(C(=O)N[C@@H]2C(=O)N[C@H](C(C)C)C(=O)N3CCC[C@H]3C(=O)N(C)CC(=O)N(C)[C@@H](C(C)C)C(=O)O[C@@H]2C)c(N)c1=O` [Actinomycin-D] (I: T[dV]P[Sar][NMeV] / II: T[dV]P[Sar][NMeV]; ester I:1-I:C, II:1-II:C; linker I:N-II:N via Actinocin(9to1)), the “BDNF-induced protein synthesis of BDNF targets” value in assay [3] is on record as “does not alter BDNF-induced protein synthesis”. Consider `CCn1cc(C(=O)O)c(=O)c2cc3c(cc21)OCO3` [oxolinic acid], for which the “total protein synthesis (35S incorporation)” value in assay [2] is recorded as “does not alter total cellular protein synthesis”.
